Here are results for two compounds from patent US20050181509A1 (priority 2004, published 2005).

Test [1] deals with F. oxysporum transformants generated using pBHt2-tk (ChGPD-HSVtk). In kind it is cell-based, Fusarium oxysporum.
The subject of test [2] is Aspergillus fumigatus transformants generated using pBHt2-tk (ChGPD-HSVtk). The class given is cell-based.
Test [3] relates to Botrytis cineria transformants generated using pBHt2-tk (ChGPD-HSVtk). In kind it is cell-based.
Test [4] deals with wild-type strain of B. cineria. The class given is cell-based, Botrytis cineria.
Test [5] relates to F. oxysporum O-685 transformants. In kind it is cell-based, Fusarium oxysporum.
In test [6] the test system is transformants of N. crassa that express HSVtk. The settings on record: HSVtk-expressing transformants; cited from earlier work.
Test [7] relates to transformants of Cryptococcus neoformans that express HSVtk. As to conditions: HSVtk-expressing transformants; cited from earlier work.

Each structure is given as a SMILES string. Some results are limits rather than exact numbers.

For `Nc1nc(O)c2ncn(COC(CO)CO)c2n1` [Ganciclovir], the sensitivity of transformants result in test [1] and in test [2] was “exhibited sensitivity” each time. Also, the “concentration failing to inhibit growth” value in test [3] was over 2 mM.
As to `O=c1[nH]c(=O)n([C@H]2C[C@H](O)[C@@H](CO)O2)cc1F` [F2dU, 5-fluoro-2′-deoxyuridine], the sensitivity of transformants entry in test [1], in test [2], in test [3], in test [6] and in test [7] was “exhibited sensitivity” each time. The “concentration required for significant growth inhibition” value in test [2] was 50 µM. Moreover, in test [3], the “concentration sufficient to inhibit growth” value is listed as 5 nM. For the same compound, the “sensitivity of wild-type strain” value in test [4] is listed as “exhibited noticeable sensitivity”. The “reduction of the number of transformants relative to that generated in the presence of 0 or 5 μM F2dU” value in test [5] is on record as 2 to 4 fold.
